Common to all, as to assay: NCI anticancer screen, dose series, 48 h
Assay [1] deals with MOLT-4 leukemia.
Assay [2] relates to RPMI-8226 leukemia.
Assay [3] deals with MCF7 breast.
The subject of assay [4] is SF-539 CNS.
The subject of assay [5] is RXF 393 renal.
For assay [6], the system named is SNB-19 CNS.
Assay [7] relates to NCI/ADR-RES ovarian.
Assay [8] relates to NCI-H460 lung.
Assay [9] concerns MALME-3M melanoma.
In assay [10] the test system is HS 578T breast.

Several values for one entry are separate records, joined by “and”; a condition that tells them apart may be missing. Equal entries are not always repeated.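 Following 48 hours of exposure in 96-well plates, responses at five concentrations were used to interpolate endpoints linearly. Abbreviation: GI50, concentration required for 50% inhibition of growth. TGI denotes the concentration required for complete inhibition of growth.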

Drawing on PubChem BioAssay (NCI), this text covers GI50 and TGI for nine molecules.

Consider `COc1cc(C[C@H]2c3cc(OC)c(OC)cc3CCN2C)c(Oc2cc3c(cc2OC)-c2c(OC)c(OC)cc4c2[C@H](C3)N(C)CC4)cc1OC`, for which the GI50 in assay [1] was 4.06 µM; in [2], 3.22 µM; in assay [4] it was 3.97 µM; in assay [5] it was 8.62 µM; in assay [6], 20.3 µM; in assay [8], 14.1 µM. Besides, the GI50 in assay [9] was 5.39 µM. Moreover, the TGI in [1] was 20.4 µM and 12.2 µM; in assay [2] it was 25.5 µM and 15.4 µM; in [3], 27.8 µM; in assay [4], 16.2 µM and 9.41 µM; in [5], 7.35 µM and 21.3 µM; in assay [6] it was 41.8 µM and 54 µM. Further, the TGI in assay [7] was 32.3 µM; in assay [8], 20.1 µM and 27.5 µM; in assay [9], 17 µM and 10.2 µM; in [10], 13.1 µM.

For the molecule `N#CC(NC12CC3CC(CC(C3)C1)C2)c1ccc2c(c1)OCO2` (stereo unspecified), the TGI in [1], in assay [2], in assay [3], in assay [4], in assay [5] and in [6] was above 100 µM throughout. For the same molecule, the TGI in [7], in assay [8], in assay [9] and in assay [10] was above 100 µM in each case.

With `COc1ccc(-c2cn(-c3cc(OC)c(OC)c(OC)c3)c(SCc3ccccc3)n2)cc1OC`, the GI50 in [1] was 73.3 µM; in assay [2], above 100 µM; in [3] it was above 100 µM; in assay [4], above 100 µM; in [5], above 100 µM; in assay [6] it was above 100 µM. Moreover, the GI50 in [7], in [8], in assay [9] and in assay [10] was above 100 µM in each case. Further, the TGI in [1], in assay [2], in [3], in [4], in assay [5] and in assay [6] was above 100 µM in each case. Moreover, the TGI in [7], in assay [8], in [9] and in assay [10] was above 100 µM each time.

On to `COc1ccc(-c2c[nH]c(C(=O)O)c2-c2cc(OC)c(OC)c(OC)c2)cc1`, for which the GI50 in assay [1] is 4.95 µM; in assay [2], 4.24 µM; in [3], 3.89 µM; in assay [4], 3.08 µM; in assay [5] it was 2.33 µM; in assay [6], 7.24 µM. The GI50 in assay [7] was 3.8 µM; in [8], 3.8 µM; in [9], 4.37 µM; in [10], 3.42 µM. Besides, the TGI in assay [1] was above 100 µM; in assay [2] it was above 100 µM; in assay [3], above 100 µM; in assay [4], 15.6 µM; in assay [5], 6.77 µM; in assay [6], above 100 µM. Also, the TGI in assay [7], in assay [8], in [9] and in assay [10] was above 100 µM in each case.

Consider `COc1ccc2cc(C(=O)/C=C/c3ccc(Cl)cc3Cl)ccc2c1`, for which the GI50 in assay [1] was 4.01 µM; in assay [2] it was 6.81 µM; in assay [3], 18.1 µM; in assay [4], 3.98 µM; in assay [5] it was 4.52 µM; in assay [6], 25.7 µM. The GI50 in [7] was 23 µM; in assay [8] it was 70.7 µM; in assay [9] it was 23.5 µM; in assay [10] it was 28.1 µM. The TGI in assay [1] was 17.7 µM; in [2], above 100 µM; in [3], above 100 µM; in assay [4], 13.7 µM; in assay [5], 14.5 µM; in assay [6], 71.5 µM. Further, the TGI in assay [7] was above 100 µM; in assay [8], above 100 µM; in assay [9], above 100 µM; in [10] it was 73.7 µM.

Turning to `CN(C)CCN1C(=O)c2ccccc2N(C)c2ccccc21`, the GI50 in assay [1], in [2], in assay [3], in [4], in assay [5] and in [6] was above 100 µM in each case. Moreover, the GI50 in assay [7], in assay [8], in assay [9] and in assay [10] was above 100 µM throughout. Besides, the TGI in assay [1], in assay [2], in assay [3], in [4], in assay [5] and in [6] was above 100 µM throughout. Moreover, the TGI in assay [7], in assay [8], in assay [9] and in assay [10] was above 100 µM in each case.

In the case of `COc1ccc(-c2nc(-c3nc4ccc(OC)cc4[nH]3)c3ccccn23)cc1`, the GI50 in assay [1] was 3.37 µM; in assay [2] it was 1.72 µM; in assay [3] it was 3.4 µM; in assay [4], 9.71 µM; in assay [5], 24.2 µM; in [6] it was 5.26 µM. For the same molecule, the GI50 in assay [7] is 3.86 µM; in [8], 3.23 µM; in assay [9], 13.3 µM; in assay [10], 2.57 µM. Besides, the TGI was 16.9 µM in assay [1]; 5.57 µM in [2]; above 100 µM in [3]; above 100 µM in [4]; above 100 µM in assay [5]; above 100 µM in assay [6]. Further, the TGI was 57.7 µM in [7], 14 µM in [8], 70.5 µM in [9] and 7.15 µM in assay [10].

As to `COc1cc(OC(=O)c2ccccc2)cc2c1C(=O)C=CC2=O`, the TGI in assay [1] amounted to 14.6 µM; in assay [2], 29.7 µM; in assay [3], 52 µM; in assay [4], 41.7 µM; in assay [5], 24.6 µM; in assay [6] it was 56.4 µM. Besides, the TGI in assay [7] is above 88.6 µM; in assay [8] it was 60.9 µM; in assay [9], 27 µM; in [10], 69.3 µM.

For `COc1ccc(C(=O)c2cc(OC)c(OC)c(OC)c2)cc1OC(=O)CCl`, the GI50 in [1] is below 0.0209 µM; in [2], below 0.021 µM; in assay [3], 0.0249 µM; in assay [4] it was below 0.01 µM; in [5] it was 0.0441 µM; in assay [6] it was below 0.0283 µM. Further, the results for the GI50 in [7], in [8] and in [10] were below 0.0167 µM, 0.0399 µM and 0.0281 µM, respectively. In addition, the TGI was above 100 µM in [1]; 12.9 µM in [2]; above 100 µM in assay [3]; 0.0541 µM in assay [4]; above 100 µM in assay [5]; above 100 µM in [6]. Moreover, the TGI in [7], in [8], in assay [9] and in assay [10] was above 100 µM in each case.
